We go through 40 compounds from US20050148633A1 (priority 2003, published 2005).

A value given as a limit tells only on which side of the number the result lay.

In one assay the test system is IL-2 production. In words: Inhibition of IL-2 production in PHA-activated Jurkat cells (ELISA). The class given is cell-based. The conditions noted are these: Homo sapiens, PHA 2.5 μg/mL, 20 hours, value bins. The procedure: Jurkat cells were placed in a 96 well plate (0.5 million cells per well in 1% FBS medium) then test compounds of this invention were added at different concentrations. After 10 minutes, the cells were activated with PHA (final concentration 2.5 μg/mL) and incubated for 20 hours at 37° C. under CO2. The final volume was 200 μL. Following incubation, the cells were centrifuged and the supernatants collected and stored at −70° C. prior to assaying for IL-2 production. A commercial ELISA kit (IL-2 Eli-pair, Diaclone Research, Besancon, France) was used to detect production of IL-2, from which dose response curves were obtained. The IC50 value was calculated as the concentration at which 50% of maximum IL-2 production after stimulation was inhibited versus a non-stimulation control.
For orientation: ELISA stands for enzyme-linked immunosorbent assay.
In general, IC50 refers to the concentration at which inhibition is half-maximal. Read a high IC50 as a need for much substance. The compound `COc1ccc(Cl)cc1-c1ccc(NCc2c(F)cccc2F)cc1` [Compound 129, N-(2′-methoxy-5′-chloro-biphenyl-4-yl)-2,6-difluoro-benzyl amine] displayed an IC50 of less than 100 nM. Same read-out and setting: for `COc1ccc(N(C)C)c(-c2ccc(NC(=O)c3ccncc3C)cc2)c1` [Compound 80, 3-methyl-pyridine-4-carboxylic acid {2′-(N,N-dimethylamino)-5′-methoxybiphenyl-4-yl}-amide] the value was 100 to 500 nM; for `O=C(Nc1ccc(-c2cc(C(F)(F)F)ccc2C(F)(F)F)cc1)c1cc(F)ccc1F` [Compound 28, N-(2′,5′-Bis-trifluoromethyl-biphenyl-4-yl)-2,5-difluoro-benzamide], less than 100 nM; for `O=C(Nc1ccc(-c2c(F)cccc2C(F)(F)F)cc1)c1cccc(F)c1F` [Compound 22, 2,3-Difluoro-N-(2′-fluoro-6′-trifluoromethyl-biphenyl-4-yl)-benzamide], 100 to 500 nM. The same measure, in the same setting: for `Cc1cc(C)c(-c2ccc(NC(=O)c3cccc(F)c3F)cc2)cc1C` [Compound 52, N-(2′,4′,5′-trimethyl-biphenyl-4-yl)-2,3-difluorobenzamide] the value was less than 100 nM. As to `O=C(Nc1ccc(-c2ccccc2C(F)(F)F)cc1)c1ccncc1` [Compound 8, N-(2′-Trifluoromethyl-biphenyl-4-yl)-isonicotinamide], the IC50 lay within 100 to 500 nM. The compound `O=C(Nc1ccc(-c2cc(C(F)(F)F)ccc2C(F)(F)F)cc1)c1ccncc1F` [Compound 68, 3-fluoro-pyridine-4-carboxylic acid (2′,5′-bis-trifluoromethylbiphenyl-4-yl)-amide] had an IC50 of less than 100 nM. The same measure, in the same setting: for `COc1ccc(Cl)cc1-c1ccc(NC(=O)c2ccncc2F)cc1` [Compound 67, 3-fluoro-pyridine-4-carboxylic acid (2′-methoxy-5′-chlorobiphenyl-4-yl)-amide] the value was less than 100 nM; for `O=C(Nc1ccc(-c2ccccc2C(F)(F)F)cc1)c1cnccc1C(F)(F)F` [Compound 12, 4-Trifluoromethyl-N-(2′-trifluoromethyl-biphenyl-4-yl)-nicotinamide], 100 to 500 nM. On the same count and under the same terms, the result for `O=C(Nc1ccc(-c2cc(C(F)(F)F)ccc2Cl)cc1)c1c(F)cccc1F` [Compound 86, N-(2′-chloro-5′-trifluoromethylbiphenyl-4-yl)-2,6-difluorobenzamide] reads less than 100 nM; that for `O=C(Nc1ccc(-c2cc(C(F)(F)F)ccc2C(F)(F)F)cc1)c1ccno1` [Compound 42, Isoxazole-5-carboxylic acid (2′,5′-bis-trifluoromethyl-biphenyl-4-yl)-amide], 100 to 500 nM; that for `COc1ccc(C(C)=O)cc1-c1ccc(NC(=O)c2cccc(F)c2F)cc1` [Compound 50, N-(2′-methoxy-5′-acetyl-biphenyl-4-yl)-2,3-difluorobenzamide], less than 100 nM. On the same count and under the same terms, for `O=C(Nc1ccc(-c2cc(C(F)(F)F)ccc2F)cc1)c1cccc(F)c1F` [Compound 19, 2,3-Difluoro-N-(2′-fluoro-5′-trifluoromethyl-biphenyl-4-yl)-benzamide] the value was 100 to 500 nM; for `Cc1cc(C(=O)Nc2ccc(-c3cc(C(F)(F)F)ccc3C(F)(F)F)cc2)n(C)n1` [Compound 40, 1,3-Dimethyl-1H-pyrazol-5-carboxylic acid (2′,5′-bis-trifluoromethyl-biphenyl-4-yl)-amide], 100 to 500 nM; for `Cc1cnccc1C(=O)Nc1ccc(-c2ccccc2C(C)C)cc1` [Compound 77, 3-methyl-pyridine-4-carboxylic acid (2′-isopropyl-biphenyl-4-yl)-amide], 100 to 500 nM. In turn, `COc1ccc(C(C)=O)cc1-c1ccc(NC(=O)c2snnc2C)cc1` [Compound 71, 4-methyl-[1,2,3]-thiadiazole-5-carboxylic acid (2′-methoxy-5′-acetylbiphenyl-4-yl)-amide] gave an IC50 of 100 to 500 nM. Same read-out and setting: for `Cc1ncccc1C(=O)Nc1ccc(-c2cc(C(F)(F)F)ccc2C(F)(F)F)cc1` [Compound 60, 2-methyl-pyridine-3-carboxylic acid (2′,5′-bis-trifluoromethyl-biphenyl-4-yl)-amide] the value was 100 to 500 nM; for `COc1ccc(Cl)cc1-c1ccc(NC(=O)c2cccc(F)c2F)cc1` [Compound 44, N-(2′-methoxy-5′-chloro-biphenyl-4-yl)-2,3-difluoro-benzamide], less than 100 nM; for `O=C(Nc1ccc(-c2cc(C(F)(F)F)ccc2C(F)(F)F)cc1)c1cccc(F)c1F` [Compound 18, N-(2′,5′-Bis-trifluoromethyl-biphenyl-4-yl)-2,3-difluoro-benzamide], less than 100 nM.

`O=C(Nc1ccc(-c2ccccc2C(F)(F)F)cc1)c1cccc(F)c1F` [Compound 15, 2,3-Difluoro-N-(2′-trifluoromethyl-biphenyl-4-yl)-benzamide] had an IC50 of 100 to 500 nM.

As for `CCN(CC)C(=O)Nc1ccc(-c2cc(C(F)(F)F)ccc2C(F)(F)F)cc1` [Compound 131, N′,N′-diethyl-N-(2′,5′-bis-trifluoromethylbiphenyl-4-yl) urea], the IC50 was less than 100 nM. Turning to `N#Cc1cc(C(F)(F)F)cnc1-c1ccc(NC(=O)c2cccc(F)c2F)cc1` [Compound 37, N-[4-(3-cyano-5-trifluoromethyl-pyrid-2-yl)-phenyl]-2,3-difluoro-benzamide], the IC50 is 100 to 500 nM. On the same count and under the same terms, for `O=C(Nc1ccc(-c2cc(Cl)ccc2OC(F)F)cc1)c1ccncc1F` [Compound 72, 3-fluoro-pyridine-4-carboxylic acid (2′-difluoromethoxy-5′-chlorobiphenyl-4-yl)-amide] the value was less than 100 nM; for `O=C(Nc1ccc(-c2ccccc2C(F)(F)F)cc1)c1cc(F)ccc1F` [Compound 16, 2,5-Difluoro-N-(2′-trifluoromethyl-biphenyl-4-yl)-benzamide], 100 to 500 nM; for `O=C(Nc1ccc(-c2c(C(F)(F)F)cc3ccccn23)cc1)c1cccc(F)c1F` [Compound 21, 2,3-Difluoro-N-[4-(2-trifluoromethyl-indolizin-3-yl)-phenyl]-benzamide], less than 100 nM. On the same count and under the same terms, the result for `O=C(Nc1ccc(-c2ccc(F)cc2C(F)(F)F)cc1)c1cccc(F)c1F` [Compound 20, 2,3-Difluoro-N-(4′-fluoro-2′-trifluoromethyl-biphenyl-4-yl)-benzamide] reads less than 100 nM. Still for that read-out and setting: for `COc1ccc(OC)c(-c2ccc(NC(=O)c3snnc3C)cc2)c1` [Compound 58, 4-methyl-[1,2,3]-thiadiazole-5-carboxylic acid (2′,5′-dimethoxy-biphenyl-4-yl)-amide] the value was less than 100 nM; for `COc1ccc(C)cc1-c1ccc(NC(=O)c2ccncc2C)cc1` [Compound 69, 3-methyl-pyridine-4-carboxylic acid (2′-methoxy-5′-methylbiphenyl-4-yl)-amide], less than 100 nM; for `COc1ccc(Cl)cc1-c1ccc(NC(=O)c2cc(F)c(F)cc2F)cc1` [Compound 84, N-(2′-methoxy-5′-chloro-biphenyl-4-yl)-2,4,5-trifluorobenzamide], less than 100 nM.

`Cc1oncc1C(=O)Nc1ccc(-c2cc(C(F)(F)F)ccc2C(F)(F)F)cc1` [Compound 51, 5-methylisoxazole-4-carboxylic acid (2′,5′-bis-trifluoromethyl-biphenyl-4-yl)-amide]: the IC50 is 100 to 500 nM. `Cn1cncc1C(=O)Nc1ccc(-c2cc(C(F)(F)F)ccc2C(F)(F)F)cc1` [Compound 62, 1-methyl-1H-imidazole-5-carboxylic acid (2′,5′-bis-trifluoromethyl-biphenyl-4-yl)-amide] showed an IC50 of 100 to 500 nM. On the same count and under the same terms, for `Cc1nnsc1C(=O)Nc1ccc(-c2cc(C(F)(F)F)ccc2Cl)cc1` [Compound 27, 4-Methyl-[1,2,3]thiadiazole-5-carboxylic acid (2′-chloro-5′-trifluoromethyl-biphenyl-4-yl)-amide] the value was less than 100 nM; for `O=C(Nc1ccc(-c2cc(C(F)(F)F)ccc2C(F)(F)F)cc1)c1c(F)cccc1F` [Compound 85, N-(2′,5′-bis-trifluoromethylbiphenyl-4-yl)-2,6-difluorobenzamide], less than 100 nM.

The same assay, now with this note: Homo sapiens, PHA, bin 500 nM-1 μM.
In the case of `O=C(Nc1ccc(-c2ccccc2C(F)(F)F)cc1)c1cccnc1` [Compound 7, N-(2′-Trifluoromethyl-biphenyl-4-yl)-nicotinamide], the IC50 is 500 to 1000 nM. The same measure, in the same setting: the result for `O=C(Nc1ccc(-c2cccc(C(F)(F)F)c2)cc1)c1ccncc1F` [Compound 3, 3-Fluoro-N-(3′-trifluoromethyl-biphenyl-4-yl)-isonicotinamide] reads 500 to 1000 nM; that for `CCN(CC)C(=O)Nc1ccc(-c2cc(C(F)(F)F)ccc2C(F)(F)F)cc1` [Compound 131, N′,N′-diethyl-N-(2′,5′-bis-trifluoromethylbiphenyl-4-yl) urea], 500 to 1000 nM; that for `O=C(Nc1ccc(-c2ccccc2C(F)(F)F)c(C(F)(F)F)c1)c1cccc(F)c1F` [Compound 4, N-(2,2′-Bis-trifluoromethyl-biphenyl-4-yl)-2,3-difluoro-benzamide], 500 to 1000 nM. `Cc1cc(C(=O)Nc2ccc(-c3cc(C(F)(F)F)ccc3C(F)(F)F)cc2)no1` [Compound 39, 5-Methyl-isoxazol-3-carboxylic acid (2′,5′-bis-trifluoromethyl-biphenyl-4-yl)-amide]: the IC50 was in the range of 500 to 1000 nM.

The same assay, now with this note: Homo sapiens, PHA, bin >1 μM.
With `CCn1nc(C)cc1C(=O)Nc1ccc(-c2ccccc2C(F)(F)F)cc1` [Compound 14, 2-Ethyl-5-methyl-2H-pyrazole-3-carboxylic acid (2′-trifluoromethyl-biphenyl-4-yl)-amide], the IC50 was greater than 1000 nM. Same read-out and setting: the result for `O=C(Nc1ccc(-c2ccccc2C(F)(F)F)cc1)c1cccs1` [Compound 9, Thiophene-2-carboxylic acid (2′-trifluoromethyl-biphenyl-4-yl)-amide] reads greater than 1000 nM; that for `O=C(Nc1ccc(-c2ccccc2C(F)(F)F)cc1)c1ccccn1` [Compound 25, Pyridine-2-carboxylic acid (2′-trifluoromethyl-biphenyl-4-yl)-amide], greater than 1000 nM.
